According to patent US20160194299A1 (priority 2013, published 2016):
≈ marks a conversion by molar mass, not a printed value. Read-outs that look alike come from different tables or passages of the source.

Assays:
in vitro = settings: African green monkey
Mtb [1] = assay: microbe, parasite or virus in culture; type: cell-based, Mycobacterium tuberculosis; settings: Mycobacterium tuberculosis, read-out: MIC (I)
Mtb [2] = assay: microbe, parasite or virus in culture; type: cell-based, Mycobacterium tuberculosis; settings: Mycobacterium tuberculosis, read-out: MIC (III)

Structure (SMILES)	CC50 (in vitro) [µg/mL]	MIC (Mtb [1]) [µg/mL]	MIC (Mtb [2]) [µg/mL]
CN(C)C(=O)NC(=O)c1ccsc1NC(=O)c1nc2cnccc2s1 [Compound 384]	< 25	> 3	> 25
C=CCOC(=O)NC(=O)c1ccsc1NC(=O)c1nc2ccccc2s1 [Compound 293]	< 25	< 1	< 5
CCOC(=O)NC(=O)c1ccsc1NC(=O)c1cc(O)nc2ccccc12 [Compound 115]	> 50	> 3	> 25
CCOC(=O)NC(=O)c1ccsc1NC(=O)c1nc2c(s1)CNCC2 [Compound 84]	> 50	1 to 3 (≈ 2.63 to 7.89 µM)	> 25
CCOC(=O)NC(=O)c1ccsc1NC(=O)c1ccc2c(c1)CCCC2 [Compound 119]	> 50	> 3	> 25
CN1CCCN(C(=O)c2ccsc2NC(=O)c2nc3ccccc3s2)CC1 [Compound 254]	> 50	> 3	> 25
O=C(NC(=O)c1ccsc1NC(=O)c1nc2ccccc2s1)OCCC(F)(F)F [Compound 319]	< 25	< 1	> 25
O=C(NC(=O)c1ccsc1NC(=O)c1nc2cnccc2s1)OCc1ccccc1C(F)(F)F [Compound 295]	< 25	> 3	5 to 25 (≈ 9.87 to 49.4 µM)
O=C(NC(=O)c1ccsc1NC(=O)c1nc2ccccc2s1)OCc1ccc(F)cc1 [Compound 274]	< 25	1 to 3 (≈ 2.2 to 6.59 µM)	> 25
CCC(OC(=O)NC(=O)c1ccsc1NC(=O)c1nc2cnccc2s1)c1ccccc1 (stereo not drawn) [Compound 305]	< 25	1 to 3 (≈ 2.14 to 6.43 µM)	> 25
C=CCOC(=O)NC(=O)c1ccsc1NC(=O)c1nc2cnccc2s1 [Compound 99]	25 to 50 (≈ 64.4 to 129 µM)	< 1	< 5
CCOC(=O)NC(=O)c1cc(F)sc1NC(=O)c1nc2cccnc2s1 [Compound 318]	25 to 50 (≈ 63.4 to 127 µM)	< 1	> 25
CCOC(=O)NC(=O)c1ccsc1NC(=O)c1ccc2nccn2c1 [Compound 73]	> 50	1 to 3 (≈ 2.79 to 8.37 µM)	> 25
O=C(NC(=O)c1ccsc1NC(=O)c1nc2cnccc2s1)OCCC(F)(F)F [Compound 320]	> 50	< 1	> 25
O=C(NC(=O)c1ccsc1NC(=O)c1nc2ccccc2s1)OCc1ccccc1C(F)(F)F [Compound 294]	25 to 50 (≈ 49.5 to 98.9 µM)	> 3	> 25
CCOC(=O)NC(=O)c1ccsc1NC(=O)c1nc2c(N(C)C)ccnc2s1 [Compound 268]	> 50	< 1	> 25

Structure (SMILES)	CC50 (in vitro) [µg/mL]	MIC (Mtb [1]) [µg/mL]	MIC (Mtb [2]) [µg/mL]
CCOC(=O)NC(=O)c1ccsc1NC(=O)c1nc2c(N3CCOCC3)ccnc2s1 [Compound 247]	25 to 50 (≈ 54.2 to 108 µM)	< 1	5 to 25 (≈ 10.8 to 54.2 µM)
CCC(OC(=O)NC(=O)c1ccsc1NC(=O)c1nc2ccccc2s1)c1ccccc1 (stereo not drawn) [Compound 307]	< 25	> 3	5 to 25 (≈ 10.7 to 53.7 µM)
CC(C)OC(=O)NC(=O)c1ccsc1NC(=O)c1nc2ccccc2s1 [Compound 41]	< 25	< 1	> 25
CCOC(=O)NC(=O)c1ccsc1NC(=O)C1COc2ccc(OC)cc2C1 (stereo not drawn) [Compound 71]	> 50	1 to 3 (≈ 2.47 to 7.42 µM)	< 5
CCOC(=O)NC(=O)c1ccsc1NC(=O)C1=Cc2cccc(OC)c2OC1 [Compound 66]	> 50	< 1	< 5
CCOC(=O)NC(=O)c1ccsc1NC(=O)c1cnc2c(Br)cnn2c1 [Compound 266]	25 to 50 (≈ 57 to 114 µM)	< 1	> 25
CCOC(=O)NC(=O)c1ccsc1NC(=O)c1c(C)nc2ccc(C)cn12 [Compound 336]	25 to 50 (≈ 64.7 to 129 µM)	> 3	> 25
CCOC(=O)NC(=O)c1ccsc1NC(=O)c1ccnc(NC(=O)C(C)(C)C)n1 [Compound 118]	> 50	> 3	5 to 25 (≈ 11.9 to 59.6 µM)
CCOC(=O)NC(=O)c1ccsc1NC(=O)c1cn2c(C)cccc2n1 [Compound 290]	> 50	> 3	> 25
Cc1cc(COC(=O)NC(=O)c2ccsc2NC(=O)c2nc3cnccc3s2)ccn1 [Compound 280]	25 to 50 (≈ 55.1 to 110 µM)	> 3	> 25
O=C(NCC(F)(F)F)NC(=O)c1ccsc1NC(=O)c1nc2ccccc2s1 [Compound 349]	25 to 50 (≈ 58.4 to 117 µM)	> 3	> 25
COCCOC(=O)NC(=O)c1ccsc1NC(=O)c1nc2cnccc2s1 [Compound 103]	> 50	< 1	> 25
CCOC(=O)NC(=O)c1ccsc1NC(=O)c1cc2c(F)cccc2s1 [Compound 331]	< 25	< 1	5 to 25 (≈ 12.7 to 63.7 µM)
CCOC(=O)NC(=O)c1ccsc1NC(=O)c1ccc2cnccc2n1 [Compound 113]	> 50	> 3	> 25
CCOC(=O)NC(=O)c1ccsc1NC(=O)c1cc2ccncc2s1 [Compound 329]	< 25	< 1	> 25
